Source: patent US20090208408A1, “USE OF VCAM-1 LIGANDS FOR DETECTING AND/OR TREATING CARDIOVASCULAR DISEASES” (UNIVERSITE JOSEPH FOURIER, priority 2004, published 2009)
Read-outs that look alike come from different tables or passages of the source. Each block holds one compound with its values, some of them ahead of it. Where a SMILES comes first, the peptide text is derived from it. [ ]: non-standard residue; d: D form. Tyr(3-I) = N[C@@H](Cc1ccc(O)c(I)c1)C(=O)O

Assays:
VCAM-1 = molecular target: T1, VCAM-1 (Homo sapiens, UniProt P19320); conditions: as shown by Ling et al. (2000); cited from earlier work
T1 sequence (P19320 25-739): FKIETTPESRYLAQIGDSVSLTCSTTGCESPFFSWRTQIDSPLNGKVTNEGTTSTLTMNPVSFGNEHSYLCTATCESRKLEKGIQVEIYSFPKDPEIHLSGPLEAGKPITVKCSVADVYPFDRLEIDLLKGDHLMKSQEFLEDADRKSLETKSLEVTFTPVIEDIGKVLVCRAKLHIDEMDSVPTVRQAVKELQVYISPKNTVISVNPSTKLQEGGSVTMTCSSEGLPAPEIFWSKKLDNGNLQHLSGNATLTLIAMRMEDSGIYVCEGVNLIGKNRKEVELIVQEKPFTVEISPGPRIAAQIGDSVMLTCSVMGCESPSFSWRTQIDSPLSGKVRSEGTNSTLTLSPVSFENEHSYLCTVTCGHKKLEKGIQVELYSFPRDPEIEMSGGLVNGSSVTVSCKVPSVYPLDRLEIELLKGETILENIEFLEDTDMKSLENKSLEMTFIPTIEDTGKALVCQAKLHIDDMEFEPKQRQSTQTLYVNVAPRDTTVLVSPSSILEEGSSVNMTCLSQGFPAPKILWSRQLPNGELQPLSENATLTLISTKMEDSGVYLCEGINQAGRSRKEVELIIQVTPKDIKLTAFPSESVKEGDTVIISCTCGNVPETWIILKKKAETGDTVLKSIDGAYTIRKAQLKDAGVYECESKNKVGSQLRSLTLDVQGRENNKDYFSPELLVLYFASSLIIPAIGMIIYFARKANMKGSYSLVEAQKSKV

[1] = Biodistribution 180 minutes after the injection; assay type: in vivo; conditions: rabbit, iv, total radioactivity
Method: (§1) Samples of blood were taken 1, 2, 5, 10, 15, 20, 25 and 30 minutes after injection of the tracers. The animals were euthanased 30 minutes (examples 2, 3 and 4) or 180 minutes (examples 5 and 6) after injection of the labelled VCAM-1 ligands. Samples of the principal organs were taken. These samples, as well as the blood samples taken, were counted for the radioactivity which they contain. The dorsal aorta, the aortic arch and the ventral aorta were also sampled and immediately placed in 10% formalin. A portion of ventral aorta was placed for 24 hours in 3.7% formaldehyde for subsequent inclusion in paraffin and verification by immunohistology of the presence of VCAM-1.
(§2) The tracers ^123I-B2702.84-75 and ^99mTc-B2702.84-75 were evaluated according to the same methodology as was used for Examples 3 and 4, except that the animals were euthanased 180 minutes (30 minutes previously) after the injection of the tracers.
The binding values are expressed as a percentage of the injected dose per gram of organ (% ID/g).

atheromatous plaques = experiment: Aortic binding, ex vivo autoradiography, euthanasia after 180 minutes; assay type: in vivo, rabbit; conditions: 180 minutes after injection
Method: as §1
The dorsal and ventral aortas were placed in contact with a high-resolution phosphorus screen (Fujifilm 08SR2025) in darkness for 18 hours. The screen was then scanned (phosphoimager Fujifilm BAS 5000) and the images of the distribution of the labelled VCAM-1 ligands on the aortas of healthy or hyperlipidemic animals were quantified with the aid of the Scion Image Beta software available on the National Institute of Health internet site. […]
The tracers ^123I-B2702.84-75 and ^99mTc-B2702.84-75 were evaluated according to the same methodology as was used for Examples 3 and 4, except that the animals were euthanased 180 minutes (30 minutes previously) after the injection of the tracers. […]

[2] = Blood kinetics up to 180 minutes after injection; assay type: in vivo, rabbit; conditions: 180 minutes after the injection
Method: as §2
The blood samples for measuring the circulatory tracer activity were taken 1, 2, 5, 10, 20, 25, 30, 60, 120 and 180 minutes after the injection. 180 minutes after the injection, the circulatory activity of ^123I-B2702.84-75 and ^99mTc-B2702.84-75 represents respectively 30% and 15% of the initial activity. It will be recalled that the circulatory activity of ^125I-B2702.84-75 represented approximately 40% of the initial activity 30 minutes after the injection in the experiments described in Example 3.

Compound: B2702.84-75/75-84: peptide of sequence YRLAIRLNERRENLRIALRY (SEQ ID no 2), inverse dimer of residues 84-75/75-84 of HLA-B2702 (listed as Homo sapiens)
binding to VCAM-1 (VCAM-1): bind specifically to VCAM-1

tissue uptake at 3 h ([1]; aorta, Control rabbits (n = 3), read-out: Biodistribution, Aorta): 0.011 ± 0.004 %ID/g | tissue uptake at 3 h ([1]; aorta, WHHL rabbits (n = 3), read-out: Biodistribution, Aorta): 0.034 ± 0.012 %ID/g | tissue uptake at 3 h ([1]; blood, Control rabbits (n = 3), read-out: Biodistribution, Blood): 0.19 ± 0.038 %ID/g | tissue uptake at 3 h ([1]; blood, WHHL rabbits (n = 3), read-out: Biodistribution, Blood): 0.161 ± 0.048 %ID/g | tissue uptake at 3 h ([1]; fat, Control rabbits (n = 3), read-out: Biodistribution, Fat): 0.011 ± 0.001 %ID/g | tissue uptake at 3 h ([1]; fat, WHHL rabbits (n = 3), read-out: Biodistribution, Fat): 0.015 ± 0.006 %ID/g | tissue uptake at 3 h ([1]; heart, Control rabbits (n = 3), read-out: Biodistribution, Heart): 0.088 ± 0.017 %ID/g | tissue uptake at 3 h ([1]; heart, WHHL rabbits (n = 3), read-out: Biodistribution, Heart): 0.088 ± 0.031 %ID/g | tissue uptake at 3 h ([1]; kidney, Control rabbits (n = 3), read-out: Biodistribution, Kidney): 0.307 ± 0.052 %ID/g | tissue uptake at 3 h ([1]; kidney, WHHL rabbits (n = 3), read-out: Biodistribution, Kidney): 0.49 ± 0.184 %ID/g | tissue uptake at 3 h ([1]; liver, Control rabbits (n = 3), read-out: Biodistribution, Liver): 0.086 ± 0.025 %ID/g | tissue uptake at 3 h ([1]; liver, WHHL rabbits (n = 3), read-out: Biodistribution, Liver): 0.096 ± 0.029 %ID/g | tissue uptake at 3 h ([1]; lung, Control rabbits (n = 3), read-out: Biodistribution, Lung): 0.138 ± 0.028 %ID/g | tissue uptake at 3 h ([1]; lung, WHHL rabbits (n = 3), read-out: Biodistribution, Lung): 0.163 ± 0.044 %ID/g | tissue uptake at 3 h ([1]; muscle, Control rabbits (n = 3), read-out: Biodistribution, Muscle): 0.028 ± 0.003 %ID/g | tissue uptake at 3 h ([1]; muscle, WHHL rabbits (n = 3), read-out: Biodistribution, Muscle): 0.026 ± 0.009 %ID/g | tissue uptake at 3 h ([1]; spleen, Control rabbits (n = 3), read-out: Biodistribution, Spleen): 0.076 ± 0.015 %ID/g | tissue uptake at 3 h ([1]; spleen, WHHL rabbits (n = 3), read-out: Biodistribution, Spleen): 0.089 ± 0.029 %ID/g | tissue uptake at 3 h ([1]; stomach, Control rabbits (n = 3), read-out: Biodistribution, Stomach): 0.095 ± 0.025 %ID/g | tissue uptake at 3 h ([1]; stomach, WHHL rabbits (n = 3), read-out: Biodistribution, Stomach): 0.114 ± 0.04 %ID/g | binding ratio atheromatous plaque / normal aortic zone (atheromatous plaques; WHHL animals): 4.0 | circulatory activity, of the initial activity [2]: 30%
Compound: CC[C@H](C)[C@H](NC(=O)[C@H](C)NC(=O)[C@H](CC(C)C)NC(=O)[C@H](CCCNC(=N)N)NC(=O)[C@@H](N)Cc1ccc(O)c(I)c1)C(=O)N[C@@H](CCCNC(=N)N)C(=O)N[C@@H](CC(C)C)C(=O)N[C@@H](CC(N)=O)C(=O)N[C@@H](CCC(=O)O)C(=O)N[C@@H](CCCNC(=N)N)C(=O)O [^123I-B2702.84-75] (H-[Tyr(3-I)]RLAIRLNER-OH; N-terminus and C-terminus assumed)
binding on atheromatous plaques of WHHL animals relative to aortas of control animals (atheromatous plaques): 17.0 times
